Data set [1] in a line: Cell number / cell survival in induced ΔK280 TauRD-DsRed SH-SY5Y cells (high-content). The settings on record: human; induced SH-SY5Y cells expressing ΔK280 TauRD-DsRed for 6 days, 2–10 μM tested; read-out: IC50 cytotoxicity based on cell number. In kind it is cell-based, human. How it is done: (§1) ΔK280 TauRD-DsRed SH-SY5Y cells were plated in the presence of 10 μM retinoid acid (RA; Sigma-Aldrich) to promote neuronal differentiation. The next day, cells were added with congo red or ZN/VB compounds (2–10 μM) for 8 h pretreatment, followed by inducing ΔK280 TauRD-DsRed expression with doxycycline (2 μg/mL). On day 8, cell nuclei were stained with Hoechst 33342 (0.1 μg/mL; Thermo Scientific), and cell images acquired using ImageXpress Micro Confocal High-Content Imaging System (Molecular Devices, San Jose, CA, USA) with DAPI (4′,6-diamidino-2-phenylindole, for nuclei) and TRITC (tetramethylrhodamine, for DsRed) fluorescence filter sets. To detect ROS changes, 10 μM compound-treated cells were stained with Hoechst 33342 and 2′,7′-dichlorodihydrofluorescein diacetate (H2DCFDA, 10 μM) fluorescein (Invitrogen, Carlsbad, CA, USA), and cell images captured using DAPI and FITC (fluorescein isothiocyanate, for DCF) filters. For assessing differential neurite outgrowth, 10 μM compound-treated cells were fixed (paraformaldehyde, 4%), permeabilized (Triton X-100, 0.3%), and stained with class III β-tubulin (TUBB3, 1:1000) primary antibody (#802001, BioLegend, San Diego, CA, USA), followed by donkey anti-rabbit Alexa Fluor® 555 secondary antibody (1:1000; #A-31572, Invitrogen) and DAPI (0.1 μg/mL; Sigma-Aldrich) stains. The nuclei and neurite images were acquired with DAPI and TRITC fluorescence filters, respectively. All analyses of images were performed using MetaXpress software (Molecular Device).

Data set [2] has as its system TRKB knockdown ΔK280 TauRD-DsRed SH-SY5Y cells. Description: TRKB RNA interference: TRKB protein level and neurite outgrowth. In kind it is cell-based, human. The settings on record: 10 μM. How it is done:
as §1, with “For assessing differential neurite outgrowth, 10 μM compound-treated cells were fixed (paraformaldehyde, 4%), permeabilized (Triton X-100, 0.3%), and stained with class III β-tubulin (TUBB3, 1:1000) primary antibody (#802001, BioLegend, San Diego, CA, USA), followed by donkey anti-rabbit Alexa Fluor® 555 secondary antibody (1:1000; #A-31572, Invitrogen) and DAPI (0.1 μg/mL; Sigma-Aldrich) stains.” left out, “All analyses of images were performed using MetaXpress software (Molecular Device).” left out
Cells were collected and protein extracted as described. […] Protein signals were detected with chemiluminescent substrate (Millipore) using the ImageQuant™ LAS 4000 imager and analysis software (GE Healthcare, UK). […]

The target in data set [3] is T1, E. coli-expressed ΔK280 TauRD protein (Homo sapiens, UniProt P10636, DEL597-597).
T1 construct: TauRD (Q^244-E^372 of Tau, NP_005901) aggregation; N-terminal Met (N); made in house; host or cells: E. coli
The data set can be described thus: Thioflavin T fluorescence ΔK280 TauRD aggregation assay. The settings on record: TauRD protein 20 μM, 48 h at 37 °C; read-out: EC50 inhibiting ΔK280 TauRD aggregation. In kind it is biochemical. How it is done:
The anti-aggregation activity of congo red (positive control) and ZN/VB compounds (5–20 μM) was assessed using E. coli-expressed ΔK280 TauRD protein [33] and thioflavin T (Sigma-Aldrich) fluorescence assay. The trend of ΔK280 TauRD amyloid aggregate formation depicted with enhanced and red-shifted fluorescence was recorded by a FLx800 microplate fluorescence reader (BioTek Instruments), where the procedure was previously reported in detail.

The next data set has as its system caspase-6. The data set can be described thus: Caspase-6 activity assay in cell lysates. In kind it is cell-based, human. To be noted: uninduced = 100%, induced untreated 110.5%. The protocol:
After being compounds-treated and RA-differentiated, cells were collected for caspase-1/6 and AChE activity measurements. Cells were lysed in lysis buffer with repeated freeze/thaw cycles and protein concentration in cell lysates quantitated. Types of substrates applied to detect each caspase’s activity were: YVAD-AFC for caspase-1 and VEID-AFC for caspase-6 (BioVision, Milpitas, CA, USA). The reaction mixtures were incubated for 1.5 h at 37 °C according to the manufacturer’s instructions. The fluorescence intensities with excitation/emission wavelengths at 400/505 nm were recorded by a FLx800 microplate fluorescence reader (BioTek Instruments). An AChE activity assay was performed according to the manufacturer’s instructions (Sigma-Aldrich), as described in the Ref. [28]. The mixture was incubated for 2–10 min at room temperature, and absorbance at 412 nm wavelength was measured by Multiskan™ GO Microplate Spectrophotometer (Thermo Scientific).

Data set [4] deals with ΔK280 TauRD-DsRed SH-SY5Y cells. Description: High-content neurite outgrowth analysis (TUBB3 stain). In kind it is cell-based, human. The settings on record: 10 μM. How it is done: as §1

T1 sequence (P10636 with tags, fused parts or gaps isoform P10636-8 DEL280-280): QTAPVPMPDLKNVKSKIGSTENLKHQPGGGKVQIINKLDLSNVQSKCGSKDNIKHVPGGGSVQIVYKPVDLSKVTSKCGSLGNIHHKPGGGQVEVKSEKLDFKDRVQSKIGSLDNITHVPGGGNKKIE

One may read the IC50 as the midpoint of a concentration-inhibition curve. Usually EC50 stands for the concentration at which the effect is half-maximal. For the compound `O=C(/C=C/c1ccccc1O)c1c(O)c2ccccc2oc1=O` [ZN-015, (E)-4-hydroxy-3-(3-(2-hydroxyphenyl)acryloyl)-2H-chromen-2-one], in data set [1], the IC50 at 6 days is 16 µM. The results for the neurite process in data set [2] (TRKB knockdown), in data set [2] (scrambled shRNA) and in data set [4] (induced untreated 2.07) were 2.17, 2.35 and 2.34, respectively. Moreover, the EC50 in data set [3] amounted to 13.2 µM. The caspase-6 activity in the data set on caspase-6 stood at 99.8%. For the same compound, the neurite branch in data set [4] (induced untreated 0.74) is given as 0.92. In data set [4] (induced untreated 30.6 μm), this compound had a neurite length of 40.7 μm.

The record behind these values is article PMC9953660, “Using ΔK280 TauRD Folding Reporter Cells to Screen TRKB Agonists as Alzheimer’s Disease Treatment Strategy” (Biomolecules, 2023).
